Key:
HsdUTPase = target: T1, HsdUTPase (Homo sapiens, UniProt P33316); test: Inhibition of human dUTPase (Ki); assay type: biochemical; conditions: average of three independent experiments ± standard errors
T1 construct: made in house
T1 sequence (P33316 1-164 isoform P33316-2): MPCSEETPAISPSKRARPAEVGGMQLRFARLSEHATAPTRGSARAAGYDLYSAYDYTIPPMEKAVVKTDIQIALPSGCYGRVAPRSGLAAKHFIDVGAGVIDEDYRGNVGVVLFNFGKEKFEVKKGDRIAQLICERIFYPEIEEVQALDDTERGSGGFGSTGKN
Excerpt: Table 1 Ki values for Plasmodium and human dUTPases and IC50s for intraerythrocytic stages of Plasmodium falciparum | column: Ki HsdUTPase

[1] = system: Plasmodium falciparum 3D7; test: In vitro inhibitory activity against erythrocytic stages of P. falciparum (3H-hypoxanthine incorporation assay); assay type: cell-based; conditions: intraerythrocytic stages of Plasmodium falciparum; average of three independent experiments ± standard errors; read-out: IC50 Pf3D7
Experimental: (§1) In vitro inhibitory activity against the erythrocytic stages of P. falciparum of overexpressing mutants was determined by using the SYBR green assay and the ^3H-hypoxanthine incorporation assay was used for IC50 determination as previously described. Plasmodium falciparum 3D7 was cultured using standard methods, and synchronized using 5% sorbitol as previously described. Compounds were dissolved in DMSO and added at different concentrations (8–500 ng/ml) to 48 h post-synchronization parasites. […] Chloroquine dissolved in water was used as standard drug. Experiments were carried out at least twice independently and the different concentrations were tested in duplicate. IC50 values were calculated using a four-parameter logistic regression model using data obtained from two or three independent experiments as indicated.

PfdUTPase = target: T2, PfdUTPase (Plasmodium falciparum, UniProt Q8II92); test: Inhibition of Plasmodium dUTPase (Ki); assay type: biochemical; conditions: for Ki: average of three independent experiments ± standard errors
T2 construct: made in house
T2 sequence (Q8II92 1-173): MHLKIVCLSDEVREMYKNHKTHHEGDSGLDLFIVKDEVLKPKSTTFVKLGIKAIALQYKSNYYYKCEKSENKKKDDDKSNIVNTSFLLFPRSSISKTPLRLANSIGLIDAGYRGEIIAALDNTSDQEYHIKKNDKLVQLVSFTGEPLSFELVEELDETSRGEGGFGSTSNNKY

[2] = system: dTTP and dUTP pools in Plasmodium cultures; test: Intracellular dTTP and dUTP levels by modified DNA polymerase assay; assay type: cell-based, Plasmodium falciparum; conditions: schizont stage, 20 h of treatment, 1× and 3× the IC50; effect at high concentrations
Experimental: The effect of different dUTPase inhibitors on dUTP and dTTP levels from P. falciparum cells was measured using a modified DNA polymerase assay. The template sequence employed was the oligonucleotide 5′-[…]-3′ and as primer sequence the oligonucleotide 5′-CCGCCTCCACCGCC-3′ was used. Saponin-isolated parasite pellets (5 × 10^8 parasites per sample) were repeatedly washed in PBS and frozen at − 80 °C. Frozen pellets were extracted with 200 μl of cold methanol/water (1:1, v/v) vigorously by vortexing, freeze-thawed twice and centrifuged. Supernatants were collected and pellets were re-extracted with the same volume of methanol/water as previously mentioned and newly centrifuged. The combined supernatants were dried under vacuum. The residues were dissolved in 40 μl either of dUTPase buffer (34 mM Tris–HCl pH 7.8, 5 mM MgCl2) or dUTPase buffer plus 30 ng of HsdUTPase and incubated for 20 min at 37 °C. To stop the reaction, 60 μl of 100% methanol were added and the samples were incubated for 1 h at − 20 °C, followed by centrifugation for 20 min at 16,000×g. The supernatants were again dried under vacuum and the DNA polymerase assay used was modified from that of Horowitz et al.. The DNA polymerase I buffer contained 34 mM Tris–HCl pH 7.8, and 50 mM MgCl2. After incubation with DNA polymerase I, 30 μl of each sample were incubated for 30 min at 4 °C with 470 μl of DNA polymerase I buffer containing 10% (v/v) trichloroacetic acid to precipitate the DNA. The solution was blotted onto a glass microfibre filter GF/C (Whatman) and each filter was washed under vacuum with 30 ml of a solution of 5% (v/v) trichloroacetic acid and 3 ml of ethanol, dried and the radioactivity was counted using a LS 6500 Multi-Purpose Scintillation Counter (Beckman Coulter).
The levels of intracellular dTTP and dUTP were measured using the DNA polymerase based assay in Plasmodium cultures incubated with compounds 3 and 4. Parasites for dUTP and dTTP measurements were obtained from highly synchronized cultures in schizont stage after 20 h of treatment with concentrations of compound that corresponded with 1× and 3× the IC50 concentration.

[3] = system: Plasmodium falciparum lines overexpressing human dUTPase (HsdUTPase OE); test: IC50 shift in P. falciparum line overexpressing human dUTPase (SYBR green assay); assay type: cell-based; conditions: HsdUTPase overexpressing line vs parental line 3D7
Experimental: as §1
(§2) Subsequently, the IC50 for each cell line with each compound and the fold change relative to the 3D7 IC50 was calculated (Fig. 3a). […] The IC50 for chloroquine as a reference compound was also determined in overexpressing mutants.

[4] = system: Plasmodium falciparum lines overexpressing PfdUTPase (PfdUTPase OE); test: IC50 shift in P. falciparum line overexpressing PfdUTPase (SYBR green assay); assay type: cell-based; conditions: PfdUTPase overexpressing line vs parental line 3D7
Experimental: as §1, §2

Molecule	Ki (HsdUTPase) [nM]	IC50 [1] [nM]	Ki (PfdUTPase) [nM]	dTTP pool [2]	dUTP pool [2]	Fold change in IC50 relative to the 3D7 IC50 [3]	Fold change in IC50 relative to the 3D7 IC50 [4]	Activity against the enzyme relative to compound 3 (PfdUTPase; PfdUTPase, compared with compound 3)
3- N-(4-(carboethoxy)butylurea)-5-tritylamino-2,3-dideoxy-β-D-xylofuranosyluracil [Compound 1]	> 100000	40 ± 10	4730 ± 160					
CCOC(=O)CCCNC(=O)NCC(CCn1ccc(=O)[nH]c1=O)CNC(c1ccccc1)(c1ccccc1)c1ccccc1 (centres unmarked) [Compound 2, Ethyl 4-(3-(4-(2,4-dioxo-3,4-dihydropyrimin-1(2H)-yl)-2-((tritylamino)methyl)butyl)uredio)butanoate]	12200 ± 6910	60 ± 10	560 ± 80					
O=C(Nc1ccc(C(=O)O)cc1)O[C@H]1C[C@H](n2ccc(=O)[nH]c2=O)O[C@@H]1CNC(c1ccccc1)(c1ccccc1)c1ccccc1 [Compound 3, 3’-O-(4-(carboxy)phenylurethane)-5’-N-tritylamino-2’,5’-dideoxyuridine]	> 100000	120 ± 50	79 ± 22	significant decrease	increase	2.3 fold	3.8 fold	
CCOC(=O)c1ccc(NC(=O)NCC(CCn2ccc(=O)[nH]c2=O)CNC(c2ccccc2)(c2ccccc2)c2ccccc2)cc1 (centres unmarked) [Compound 4, Ethyl 4-(3-(4-(2,4-dioxo-3,4-dihydropyrimin-1(2H)-yl)-2-((tritylamino)methyl)butyl)uredio)benzoate]	> 100000	150 ± 30	610 ± 70	significant decrease	increase	2.5 fold	4 fold	eightfold less active
CCN(CC)CCCC(C)Nc1ccnc2cc(Cl)ccc12 (centres unmarked) [chloroquine, Chloroquine, reference compound]						No significant effects	No significant effects	
